Experimental data from US8168164B2, “Targeted conjugates and radiation” (Purdue Research Foundation, priority 2006, dated 2012).

What was measured:
Type in all cases: in vivo, mice
M109 cells [1] = test: Effect on non-irradiated tumors (tumor volume, two tumor sites); conditions: folate-FITC
Method: Six to eight-week old (˜20-22 grams) female Balb/c mice were immunized subcutaneously at multiple sites with fluorescein (FITC)-labeled keyhole limpet hemocyanin (KLH) and were injected with GPI-0100, a saponin adjuvant. After assuring that anti-FITC antibody titers were high in all mice (as evidenced by the results of ELISA assays of serum samples of the mice), […] the pre-immunization with FITC-KLH. M109 cells are a syngeneic lung cancer cell line that expresses high levels of the folate receptor. Cancer loci were then allowed to attach and grow. When the tumor size reached about 300 mm^2 (about 2 weeks post M109 cell injection), treatments were initiated (day 1).
[…] One group was injected subcutaneously with phosphate-buffered saline (PBS). Two other groups were injected subcutaneously with 500 nmoles/kg of folate-FITC and 20,000 IU/dose of recombinant human IL-2 in a series of 5 daily injections for three weeks (5 days on and 2 days off). The mice were also injected subcutaneously with IFN-α at 25,000 IU/dose (3 times per week for 3 weeks). […]
The efficacy of these therapies were then evaluated by monitoring tumor volumes. Tumor volumes were calculated using the equation V=a×b^2/2, where “a” is the length of the tumor and “b” is the width expressed in millimeters. The tumors were measured using calipers. […]

M109 tumors = test: Effect of ligand-immunogen conjugates in combination with taxol on tumor volume; conditions: folate-FITC and cytokines with 3 doses of taxol (20 mg/kg, every other day) in place of radiation
M109 cells [2] = test: Effect of ligand-immunogen conjugates in combination with radiation on tumor volume
Method: Six to eight-week old (˜20-22 grams) female Balb/c mice were immunized subcutaneously at multiple sites with fluorescein (FITC)-labeled keyhole limpet hemocyanin (KLH) and were injected with GPI-0100, a saponin adjuvant. After assuring that anti-FITC antibody titers were high in all mice (as evidenced by the results of ELISA assays of serum samples of the mice), each animal was injected subcutaneously in the shoulder with 1×10^6 M109 cells following the pre-immunization with FITC-KLH. M109 cells are a syngeneic lung cancer cell line that expresses high levels of the folate receptor. Cancer loci were then allowed to attach and grow. When the tumor size reached about 300 mm^2 (about 2 weeks post M109 cell injection), treatments were initiated (day 1).
The mice were divided into four groups (4 mice per group). One group was injected subcutaneously with phosphate-buffered saline (PBS). Two other groups were injected subcutaneously with 500 nmoles/kg of folate-FITC and 20,000 IU/dose of recombinant human IL-2 in a series of 5 daily injections for three weeks (5 days on and 2 days off). The mice were also injected subcutaneously with IFN-α at 25,000 IU/dose (3 times per week for 3 weeks). One of these groups also received a single dose of radiation of 3 Gy on day 1. The fourth group received only a single dose of radiation of 3 Gy on day 1. The radiation was performed with a device approved for human use and calibrated to give the desired radiation dose to mice.
The efficacy of these therapies were then evaluated by monitoring tumor volumes. Tumor volumes were calculated using the equation V=a×b^2/2, where “a” is the length of the tumor and “b” is the width expressed in millimeters. The tumors were measured using calipers.
The procedures were similar to those described in Example 3 except that the radiation was given in three doses of three Gy each on days 1, 5, and 12.

Nc1nc2ncc(CNc3ccc(C(=O)NC(CCC(=O)NCCNC(=S)Nc4ccc(C(=O)O)c(-c5c6ccc(=O)cc-6oc6cc(O)ccc56)c4)C(=O)O)cc3)nc2c(=O)[nH]1 (stereo not drawn) [folate-FITC]
mice completely tumor-free after treatment (M109 cells [1]; cytokines and radiation (3 Gy days 1 and 5 on tail tumor only), 6 mice per group): Two out of six mice
response of tumors on the same animal that were not irradiated (FIG. 4) (M109 cells [1]; cytokines and radiation, tail tumor irradiated days 1 and 5 with 3 Gy per dose, neck tumor not irradiated): improved response
effect on tumor mass in combination with taxol (FIG. 5) (M109 tumors): not synergistic with taxol
effect on tumor volume (FIG. 1) (M109 cells [2]; 500 nmoles/kg folate-FITC + IL-2 20,000 IU/dose + IFN-α 25,000 IU/dose s.c., 3 weeks, single dose of radiation of 3 Gy on day 1, FITC-KLH immunized Balb/c mice): act synergistically with low dose radiation to eliminate tumors
effect on tumor volume (FIG. 2) (M109 cells [2]; folate-FITC plus IL-2 and IFN-α, radiation three doses of three Gy on days 1, 5, and 12): synergistic with low dose radiation to eliminate tumors
mice tumor-free at the end of the assay (M109 cells [2]; folate-FITC plus IL-2 and IFN-α, radiation three doses of three Gy on days 1, 5, and 12, 4 mice per group): Two out of the four mice
